Laboratory results: patent US10723692B2, “Lipids and lipid nanoparticle formulations for delivery of nucleic acids” (Acuitas Therapeutics, Inc., priority 2014, dated 2020)
Where two headings read alike, the source gives them in different places.

Assays:
[1] = system: luciferase expression in the liver; test: In vivo luciferase mRNA expression rodent model (LNP, liver luciferase); set-up: species or system C57BL/6 mice; details: tail vein, liver 4 hours; for Liver Luc @ 0.3 mg/kg (ng luc/g liver): 0.3 mg mRNA/kg; for Liver Luc @ 1.0 mg/kg (ng luc/g liver): 1.0 mg mRNA/kg
Experimental: Cationic lipid (MC3), DSPC, cholesterol and PEG-lipid were solubilized in ethanol at a molar ratio of 50:10:38.5:1.5. Lipid nanoparticles (LNP) were prepared at a total lipid to mRNA weight ratio of approximately 10:1 to 30:1. Briefly, the mRNA was diluted to 0.2 mg/mL in 10 to 50 mM citrate buffer, pH 4. Syringe pumps were used to mix the ethanolic lipid solution with the mRNA aqueous solution at a ratio of about 1:5 to 1:3 (vol/vol) with total flow rates above 15 ml/min. The ethanol was then removed and the external buffer replaced with PBS by dialysis. Finally, the lipid nanoparticles were filtered through a 0.2 μm pore sterile filter. Lipid nanoparticle particle size was 70-90 nm diameter as determined by quasi-elastic light scattering using a Nicomp 370 submicron particle sizer (Santa Barbara, Calif.).
Studies were performed in 6-8 week old female C57BL/6 mice (Charles River) according to guidelines established by an institutional animal care committee (ACC) and the Canadian Council on Animal Care (CCAC). Varying doses of mRNA-lipid nanoparticle were systemically administered by tail vein injection and animals euthanized at specific time points (1, 2, 4, 8 and 24 hrs) post-administration. Liver and spleen were collected in pre-weighted tubes, weights determined, immediately snap frozen in liquid nitrogen and stored at −80° C. until processing for analysis.
For liver, approximately 50 mg was dissected for analyses in a 2 mL FastPrep tubes (MP Biomedicals, Solon Ohio). ¼″ ceramic sphere (MP Biomedicals) was added to each tube and 500 μL of Glo Lysis Buffer—GLB (Promega, Madison Wis.) equilibrated to room temperature was added to liver tissue. Liver tissues were homogenized with the FastPrep24 instrument (MP Biomedicals) at 2×6.0 m/s for 15 seconds. Homogenate was incubated at room temperature for 5 minutes prior to a 1:4 dilution in GLB and assessed using SteadyGlo Luciferase assay system (Promega). Specifically, 50 μL of diluted tissue homogenate was reacted with 50 μL of SteadyGlo substrate, shaken for 10 seconds followed by 5 minute incubation and then quantitated using a CentroXS^3 LB 960 luminometer (Berthold Technologies, Germany). The amount of protein assayed was determined by using the BCA protein assay kit (Pierce, Rockford Ill.). Relative luminescence units (RLU) were then normalized to total ug protein assayed. To convert RLU to ng luciferase a standard curve was generated with QuantiLum Recombinant Luciferase (Promega). Based in the data provided in FIG. 1, the four-hour time point was chosen for efficacy evaluation of the lipid formulations (see EXAMPLE 48).
The FLuc mRNA (L-6107) from Trilink Biotechnologies will express a luciferase protein, originally isolated from the firefly, Photinus pyralis. FLuc is commonly used in mammalian cell culture to measure both gene expression and cell viability. It emits bioluminescence in the presence of the substrate, luciferin. This capped and polyadenylated mRNA is fully substituted with 5-methylcytidine and pseudouridine.
The cationic lipids shown in Table 2 have previously been tested with nucleic acids. For comparative purposes, these lipids were also used to formulate lipid nanoparticles containing the FLuc mRNA (L-6107) using an in line mixing method, as described in EXAMPLE 47 and in PCT/US10/22614, which is hereby incorporated by reference in its entirety. Lipid nanoparticles were formulated using the following molar ratio: 50% Cationic lipid/10% distearoylphosphatidylcholine (DSPC)/38.5% Cholesterol/1.5% PEG lipid (“PEG-DMG”, i.e., (1-(monomethoxy-polyethyleneglycol)-2,3-dimyristoylglycerol, with an average PEG molecular weight of 2000). Relative activity was determined by measuring luciferase expression in the liver 4 hours following administration via tail vein injection as described in EXAMPLE 47. The activity was compared at a dose of 0.3 and 1.0 mg mRNA/kg and expressed as ng luciferase/g liver measured 4 hours after administration, as described in EXAMPLE 47. […]

[2] = pKa of formulated cationic lipids in lipid nanoparticles (TNS fluorescence assay); assay type: physicochemical
Experimental: As described elsewhere, the pKa of formulated cationic lipids is correlated with the effectiveness of LNPs for delivery of nucleic acids (see Jayaraman et al, Angewandte Chemie, International Edition (2012), 51(34), 8529-8533; Semple et al, Nature Biotechnology 28, 172-176 (2010)). The preferred range of pKa is ˜5 to ˜7. […] Lipid nanoparticles comprising of cationic lipid/DSPC/cholesterol/PEG-lipid (50/10/38.5/1.5 mol %) in PBS at a concentration of 0.4 mM total lipid are prepared using the in-line process as described in EXAMPLE 47. TNS was prepared as a 100 μM stock solution in distilled water. Vesicles were diluted to 24 μM lipid in 2 mL of buffered solutions containing, 10 mM HEPES, 10 mM MES, 10 mM ammonium acetate, 130 mM NaCl, where the pH ranged from 2.5 to 11. An aliquot of the TNS solution was added to give a final concentration of 1 μM and following vortex mixing fluorescence intensity was measured at room temperature in a SLM Aminco Series 2 Luminescence Spectrophotometer using excitation and emission wavelengths of 321 nm and 445 nm. A sigmoidal best fit analysis was applied to the fluorescence data and the pKa was measured as the pH giving rise to half-maximal fluorescence intensity (see FIG. 2).

[3] = system: hFIX protein in mouse plasma; test: LNP delivery of human FIX mRNA, hFIX protein in mouse plasma by ELISA; assay type: in vivo; details: for Human Factor IX @ 0.3 mg/kg (ng mL in plasma): 0.3 mg/kg hFIX mRNA LNP; for Human Factor IX @ 0.3 mg/kg (ng mL in plasma) / Human Factor IX @ 1.0 mg/kg (ng mL in plasma): ELISA; for Human Factor IX @ 1.0 mg/kg (ng mL in plasma): 1.0 mg/kg hFIX mRNA LNP; for measured levels of hFIX expression (assessment): hFIX mRNA LNPs
Experimental: The LNPs with cationic lipids shown in Table 7 are formulated with mRNA coding for human FIX (e.g. TriLink Biotechnologies product L-6110) using the following molar ratio of lipids: 50% lipid/10% distearoylphosphatidylcholine (DSPC)/38.5% Cholesterol/1.5% PEG-lipid as described in EXAMPLE 47. Plasma protein is analyzed by ELISA using a commercially available kit (e.g. Abcam ab108831) as per the suppliers instructions. […] The duration of the hFIX at these levels is ˜15 hours or longer.

[4] = system: cherry red (CR) red fluorescent protein expression in liver; test: LNP activity using cherry red (CR) mRNA, liver sections by confocal fluorescence microscopy; assay type: in vivo, C57BL/6 mice
Experimental: LNPs using compound 6 are formulated as described in EXAMPLE 47 with mRNA coding for a red fluorescent protein called cherry red (CR, e.g. TriLink Biotechnologies product L-6113). In vivo studies are conducted as described in EXAMPLE 47 and sections of liver tissue are processed and observed by confocal fluorescence microscopy at 4, 6 and 24 hours post administration. Expression levels peaked at around 6 hours and maintained to at least 24 hours.

[5] = Table 3, LNP with 1.5% PEG-DMA (42-6), FLuc mRNA
[6] = Table 5, LNP with 1.5% PEG-lipid (42-6)
[7] = Table 3, in LNP cationic lipid/DSPC/cholesterol/PEG-lipid 50/10/38.5/1.5 mol %, read-out: pKa
[8] = Table 6, LNP with 1.5% PEG-lipid (42-6)

| SMILES | pKa [2, 7] | Liver Luc @ 0.3 mg/kg (ng luc/g liver) [1, 5] [ng luc/g liver] | Liver Luc @ 1.0 mg/kg (ng luc/g liver) [1, 5] [ng luc/g liver] | Liver Luc @ 0.3 mg/kg (ng luc/g liver) [1, 8] [ng luc/g liver] | Liver Luc @ 1.0 mg/kg (ng luc/g liver) [1, 8] [ng luc/g liver] | also measured |
| --- | --- | --- | --- | --- | --- | --- |
| CCCCCCCCC(CCCCCC)C(=O)OCCCCCCN(CCCCCCOC(=O)C(CCCCCC)CCCCCCCC)CCN(C)C (stereo not drawn) [Compound 5] | 6.28 | 1571 ± 414 | 12900 ± 4083 | – | – | Liver Luc @ 0.3 mg/kg (ng luc/g liver) [1, 6]: 1571 ± 414 ng luc/g liver; Liver Luc @ 1.0 mg/kg (ng luc/g liver) [1, 6]: 12900 ± 4083 ng luc/g liver; pKa ([2]; Table 5, in LNP): 6.28; Human Factor IX @ 0.3 mg/kg (ng mL in plasma) [3]: 1097 ± 357 ng·mL; Human Factor IX @ 1.0 mg/kg (ng mL in plasma) [3]: 4556 ± 686 ng·mL; measured levels of hFIX expression (assessment) [3]: clinically relevant |
| CCCCC/C=C\C/C=C\CCCCCCCCC(CCCCCCCC/C=C\C/C=C\CCCCC)OC(=O)CCCN(C)C [MC3, reference compound] | – | – | – | – | – | pKa ([2]; Table 5, in LNP, read-out: pKa): 6.09; Human Factor IX @ 0.3 mg/kg (ng mL in plasma) [3]: 336 ± 21 ng·mL; Human Factor IX @ 1.0 mg/kg (ng mL in plasma) [3]: 1154 ± 25 ng·mL |
| CCCCCCCCC(CCCCCC)C(=O)OCCCCCCCCCN(CCCCCCCCCOC(=O)C(CCCCCC)CCCCCCCC)CCN(C)C (stereo not drawn) [Compound 6] | 6.12 | 2015 ± 135 | 16006 ± 2487 | 2015 ± 135 | 16006 ± 2487 | Liver Luc @ 0.3 mg/kg (ng luc/g liver) [1, 6]: 2015 ± 135 ng luc/g liver; Liver Luc @ 1.0 mg/kg (ng luc/g liver) [1, 6]: 16006 ± 2487 ng luc/g liver; pKa ([2]; Table 5, in LNP): 6.12; pKa ([2]; Table 6, in LNP): 6.12; Human Factor IX @ 0.3 mg/kg (ng mL in plasma) [3]: 713 ± 148 ng·mL; Human Factor IX @ 1.0 mg/kg (ng mL in plasma) [3]: 2697 ± 345 ng·mL; measured levels of hFIX expression (assessment) [3]: clinically relevant; time of peak expression levels ([4]; liver sections observed at 4, 6 and 24 hours post administration): around 6 hours; distribution of expression in tissue sections ([4]; liver sections, confocal fluorescence microscopy): homogeneous expression throughout the liver; expression maintained to ([4]; liver sections, post administration): at least 24 hours |
| CCCCCCC(CCCC)COC(=O)CCCCCCCN(CCCCCCCC(=O)OCC(CCCC)CCCCCC)CCN(C)C (stereo not drawn) [Compound 20] | 6.44 | 301 ± 155 | 501 ± 96 | – | – | – |
| CCCCC/C=C\C/C=C\CCCCCCCCN(CCCCCCCC/C=C\C/C=C\CCCCC)CCN(C)C [A, reference compound] | – | – | – | 77 ± 40 | 203 ± 122 | pKa ([2]; Table 5, in LNP, read-out: pKa): 6.26 |
| CCCCC/C=C\C/C=C\CCCCCCCCN(CCCCCCCC/C=C\C/C=C\CCCCC)CCCN(C)C [B, reference compound] | – | – | – | 3 ± 0.8 | 12 ± 4 | pKa ([2]; Table 6, in LNP, read-out: pKa): 6.68 |
| CCCCCCCCCCCOC(=O)CCCCCCCN(CCCCCCCC(=O)OCCCCCCCCCCC)CCN(C)C [Compound 16] | 6.63 | 7 ± 1 | 14 ± 4 | – | – | – |
| CCCCC/C=C\C/C=C\CCCCCCCCN(CCCCCCCC/C=C\C/C=C\CCCCC)CCCCN(C)C [C, reference compound] | – | – | – | 2 ± 0.5 | 7 ± 2 | pKa ([2]; Table 6, in LNP, read-out: pKa): 7.32 |

Continued, in another order:

| pKa [2, 7] | SMILES | Liver Luc @ 0.3 mg/kg (ng luc/g liver) [1, 5] [ng luc/g liver] | Liver Luc @ 1.0 mg/kg (ng luc/g liver) [1, 5] [ng luc/g liver] | Liver Luc @ 0.3 mg/kg (ng luc/g liver) [1, 8] [ng luc/g liver] | Liver Luc @ 1.0 mg/kg (ng luc/g liver) [1, 8] [ng luc/g liver] | also measured |
| --- | --- | --- | --- | --- | --- | --- |
| 5.91 | CCCCCCCCCCCCC(CCCCCCCCCC)C(=O)OCCCCCCCCCN(CCCCCCCCCOC(=O)C(CCCCCCCCCC)CCCCCCCCCCCC)CCN(C)C (stereo not drawn) [Compound 41] | 63 ± 27 | 799 ± 619 | – | – | – |
| 6.38 | CCCCCCCCCCC(CCCCCCCC)C(=O)OCCCCCCCCCN(CCCCCCCCCOC(=O)C(CCCCCCCC)CCCCCCCCCC)CCN(C)C (stereo not drawn) [Compound 40] | 236 ± 71 | 1704 ± 571 | – | – | – |
| 6.28 | CCCCCCC(CCCC)COC(=O)CCCCCCCCCN(CCCCCCCCCC(=O)OCC(CCCC)CCCCCC)CCN(C)C (stereo not drawn) [Compound 21] | 404 ± 103 | 4149 ± 2514 | – | – | – |
| 6.2 | CCCCCCCCCCC(CCCCCCCC)COC(=O)CCCCCCCN(CCCCCCCC(=O)OCC(CCCCCCCC)CCCCCCCCCC)CCN(C)C (stereo not drawn) [Compound 28] | 522 ± 86 | 4582 ± 1291 | – | – | – |
